The text below walks through data of patent publication US10501741B2, “Methods and compositions for inhibiting growth and epithelial to mesenchymal transition (EMT) in cancer cells” (Cold Spring Harbor Laboratory, priority 2014, dated 2019).

“Also recorded” adds a separate entry of the source.

One series concerns HOP62 cells. Briefly: p53Ψ silencing in HOP62 cells (morphology, qRT-PCR of EMT markers). Type of series: cell-based, human. The text has this:
Representative micrographs are presented showing cells 4 days after transfection with a mixture of two independent siRNA oligonucleotides targeting p53. […] No difference in Snail expression was observed. Data shown represent relative expression levels compared to actin (mean±SD, n=6; p<0.0001, Student's t-test) as measured by SYBR-green-based real-time RT-PCR. […] Level of expression of p53FL and p53Ψ in MCF7 are provided in FIGS. 11B and 10E, respectively. FIG. 4D presents qRT-PCR analysis of the canonical EMT markers E-cadherin (ECAD) and vimentin (VIM) as well as the EMT master regulators Snail, Slug, Twist, and Zeb1, in H1299 cells ectopically expressing p53Ψ or p53FL. Data shown represent relative expression levels compared to actin (mean±SD, n=6; p<0.0001, Student's t-test) as measured by SYBR-green-based real-time RT-PCR. FIG. 4E depicts the percent wound closure at the indicated time points in a 2D monolayer of A549 cells expressing p53Ψ, p53FL, or vector control. […] Filter chambers were coated with 40 μl Matrigel, and invasion was assessed after 30 hours. TGF-β treated cells were used as a positive control.
Somatic alterations of the p53 tumor suppressor gene located on chromosome 17p often occur in cancers and are associated with poor prognosis. In these tumors, p53 mutations disable p53-mediated inhibition of proliferation and promotion of apoptosis in response to stress. In addition, missense p53 mutations may have gain-of-function activities that lead to an increased metastatic spread. […] To test this hypothesis p53Ψ expression was silenced in HOP62 cells. These mesenchymal cells are homozygous for the c.673−2A to G mutation and inherently express exclusively a p53Ψ-like isoform (FIG. 2I and FIG. 9O). […] Cells in which p53Ψ expression was silenced lost the elongated appearance typical of mesenchymal-like cells and instead acquired a cobblestone morphology characteristic of epithelial cells (FIG. 4A).

Series [1] has as its system A549 cells expressing p53Ψ. Briefly: MitoSOX staining of mitochondrial superoxide. Particulars: MitoSOX 1 μM. Type of series: cell-based, human. On the procedure: FIG. 6A presents Western blot analysis of mitochondrial fractions of A549 cells ectopically expressing p53Ψ. The fractions were immunoprecipitated with a CypD-specific antibody and probed with a p53 N-terminal antibody, or CypD and Smurf1 antibodies as controls. […] FIG. 6B depicts a schematic of the calcein AM assay. […] The fluorescence was detected by laser confocal microscopy after 15 minutes. Non-mitochondrial calcein fluorescence was quenched by co-treatment with CoCl2. Treatment with the ionophore ionomycin (50 nM) was used as a control. […] FIG. 6D presents the % decrease in calcein fluorescence upon quenching of cytosolic calcein with CoCl2 in three independent experiments. The median calcein fluorescence was assessed by FACS. Calcein was loaded at 10 nM and detected after 15 minutes at 515 nm upon excitation with Red HeNe at 495 nm. Treatment with ionomycin was used as a control to estimate basal fluorescence. FIG. 6E presents representative fluorescence microscopy images of A549 cells loaded with MitoSOX (1 μM). Images show the fluorescence upon excitation at 390 nm, mainly from the hydroxyethidium derivative. DAPI was used as a counterstain. FIG. 6F presents the quantification of the MitoSox-positive fractions in three independent FACS experiments from FIG. 6E. […]

Series [2] deals with MCF7 cells ectopically expressing p53Ψ. Briefly: real-time PCR of EMT markers in MCF7 cells. Type of series: cell-based, human. Particulars: CsA 2 mM for 5 days.
In series [3] the test system is H1299 cells ectopically expressing p53Ψ. Briefly: qRT-PCR of EMT markers in H1299 cells. Format: cell-based, human. The conditions noted are these: 2 mM CsA for 5 days.
For series [4], the system named is A549 cells ectopically expressing p53Ψ. Briefly: wound healing (cell motility) assay. Format: cell-based, human. Particulars: 2 mM CsA for 5 days, closure at 48 hours. As for the experimental part:
(§1) FIG. 7A presents Western blot analysis of A549 cells ectopically expressing p53Ψ upon transfection with two independent siRNA targeting cyclophilin D (CypD). […] Data represent expression levels compared to actin (mean±SD, n=6; p<0.0001, Student's t-test) as measured by SYBR-green-based real-time RT-PCR. […] Cell motility was measured in a standard wound healing experiment. […] Each bar represents the average of four individual wounds. […] Data represent relative expression compared to the vector control (mean±SD, n=6; p<0.0001, Student's t-test). […] Cells were treated for 5 days with 10 mM NAC. FIG. 7F presents a schematic of a proposed mechanism of the p53Ψ-induced EMT. Upon acute oxidative stress, p53FL was previously shown to interact with CypD and trigger necrotic cell death by opening mPTP pore (left panel).
(§2) To determine whether CypD and ROS have a causative role in EMT mediated by p53Ψ, CypD and ROS levels were modulated in cells ectopically expressing p53Ψ (A549, MCF7, H1299) and their effects on expression of EMT markers and cell invasion were assessed.

Series [5] deals with cells ectopically expressing p53Ψ (A549, MCF7, H1299). Briefly: EMT induction by p53Ψ upon modulation of CypD. Format: cell-based, human. On the procedure:
as §2

Series [6] has as its system A549 cells ectopically expressing p53Ψ. Briefly: Matrigel invasion assay. Type of series: cell-based, human. The conditions noted are these: NAC 10 mM, 5 days, invasion assessed after 30 hours. On the procedure: (§3) Data shown represent relative expression compared to ectopic expression of a vector control (mean±SD, n=6; p<0.0001, Student's t-test). […] Cells were also treated with 10 mM NAC for 5 days. The cell extracts were probed for E-cadherin, p53, CypD, and as a control GAPDH. […] Cells were treated with 10 mM NAC or 500 μM Tempol for 5 days, then extracts were probed for E-cadherin, p53 and GAPDH as indicated. […] Cells were grown in the presence or absence of NAC (10 mM). After 5 days, the invasive potential of cells was determined using a standard Matrigel invasion assay. Filter chambers were coated with 40 μl Matrigel and invasion was assessed after 30 hours.
as §2

For series [7] the test system is unchanged. Briefly: E-cadherin expression with ROS scavengers. Format: cell-based, human. Particulars: 10 mM NAC or 500 μM Tempol for 5 days. As for the experimental part:
as §1
Data shown represent relative expression compared to ectopic expression of a vector control (mean±SD, n=6; p<0.0001, Student's t-test). […] After 5 days, the invasive potential of cells was determined using a standard Matrigel invasion assay. Filter chambers were coated with 40 μl Matrigel and invasion was assessed after 30 hours.
as §2

The subject of series [8] is A549 cells expressing p53Ψ. Briefly: epistasis experiment: CypD silencing and NAC, E-cadherin Western blot. Type of series: cell-based, human. On the procedure:
as §3
To exclude the possibility that ROS-induced EMT was independent of CypD in p53Ψ-expressing cells, epistasis experiments were performed. Specifically, E-cadherin expression was measured upon manipulation of ROS levels (e.g. by NAC treatment) in cells ectopically expressing p53Ψ in the presence and absence of CypD (FIG. 13B). If CypD and p53Ψ act on parallel pathways, an additive effect of CypD silencing and ROS inhibition would be predicted. In contrast, if p53Ψ acts solely through CypD, then CypD silencing would be sufficient to reduce ROS levels and no additive effect would be observed. […] This in turn is necessary and sufficient for p53Ψ-induced EMT (FIG. 7F, right panel).

A further series concerns E-cadherin. Briefly: E-cadherin mRNA upon H2O2 treatment (SYBR-green real-time RT-PCR). Format: cell-based. As for the experimental part: as §1, §2
Series [9] has as its system mitochondrial permeability transition pore (mPTP) in A549 cells expressing p53Ψ. Briefly: calcein AM assay of mPTP permeability. Type of series: cell-based, human. Particulars: ionomycin 50 nM, control; all experimental settings.
Source text: In this assay, cells are loaded with Calcein (acetomethylester) together with its quencher Cobalt ions. Calcein freely diffuses throughout the cell including into the mitochondrial matrix. But the Cobalt quencher cannot diffuse across the inner mitochondrial membrane, therefore quenching Calcein fluorescence everywhere except in the mitochondrial matrix. Thus, Calcein fluorescence comes only from the matrix. Only upon PTP opening will Cobalt ions gain access to the matrix and quench Calcein, resulting in a sharp drop of mitochondrial fluorescence, which can be measured by FACS or microscopy (FIG. 6B).

On to “p53 siRNA: siRNA GGGTTAGTTTACAATCAGC (SEQ ID NO:5); GGTGAACCTTAGTACCTAA (SEQ ID NO:6), from Invitrogen (listed as DNA, chemistry not given here)”, for which the cell morphology result in the series on HOP62 cells (4 days after transfection with two siRNA targeting p53) is “loss of mesenchymal-like features and the acquisition of an epithelial morphology”. In addition, the Snail expression entry in the series on HOP62 cells (p53 siRNA) is “No difference”. In the series on HOP62 cells (p53Ψ knockdown), the “expression of E-cadherin” value is “increased expression of E-cadherin”; the “expression of vimentin, Zeb1, Twist and Slug” value is given as “diminished expression”.

As for cyclosporin A [CsA], the “MitoSOX fluorescence (mitochondrial superoxide)” value in series [1] is “decreased”. Besides, in series [2], the “expression of E-cadherin (real-time PCR)” value is recorded as “restore expression of E-cadherin to levels similar to parental cells” and the “expression of EMT markers (real-time PCR)” value is “reduce expression of EMT markers”. In series [3], the “expression of E-cadherin (qRT-PCR)” value was “restore expression of E-cadherin to a level similar to that observed in control cells” and the “expression of EMT markers (qRT-PCR)” value is given as “reduce expression of EMT markers”. Further, in series [4], the “cell motility (wound healing)” value is “diminish cell motility”. Besides, the “EMT in cells expressing p53Ψ” value in series [5] is “sufficient to prevent EMT”.

Consider `CC(=O)N[C@@H](CS)C(=O)O` [NAC, N-acetyl cysteine], for which, in series [6], the “invasive capabilities (Matrigel invasion)” value is given as “decreased invasive capabilities; also recorded: sufficient to decrease the invasion capabilities”. In addition, the “expression of E-cadherin” value in [7] is “augmented expression of E-cadherin”. The “E-cadherin expression in cells in which CypD was silenced” value in series [8] (CypD siRNA, 10 mM NAC for 5 days) is given as “did not increase E-cadherin expression”.

For the compound `OO` [H2O2], the cell viability entry with E-cadherin (low doses of H2O2) was “without compromising cell viability”. Besides, the “expression of E-cadherin” value in the series on E-cadherin (low doses of H2O2 for 5 days) is recorded as “decreased the expression of E-cadherin”.

Regarding “CypD siRNA: siRNA AGGCAGATGTCGTCCCAAA (SEQ ID NO:10); CGACTTCACCAACCACAAT (SEQ ID NO:11), from Invitrogen (listed as DNA, chemistry not given here)”, the “p53Ψ-induced EMT” value in [8] (CypD silenced) is listed as “blocked p53Ψ-induced EMT”. In addition, the “EMT in cells expressing p53Ψ” value in [5] was “sufficient to prevent EMT”.

Turning to `C[C@H](CCC(=O)O)C[C@H](C)C[C@H](C)C(=O)/C=C(\O)[C@H](C)C[C@H](C)C/C=C/[C@@H](C)[C@@H](O)[C@@H](C)[C@@H](O)C[C@@H]1CC[C@@](C)([C@H]2CC[C@@](C)([C@@H](C)O)O2)O1` [ionomycin], the mitochondria calcein fluorescence entry in [9] is “rapid loss of mitochondria calcein fluorescence”.

With `CC1(C)CC(O)CC(C)(C)N1[O]` [Tempol], the “invasive capabilities (Matrigel invasion)” value in series [6] is given as “decreased invasive capabilities”. The “expression of E-cadherin” value in series [7] was “augmented expression of E-cadherin”.
